Source: ChEMBL document CHEMBL4406840, “Design and synthesis of novel artemisinin derivatives with potent activities against colorectal cancer in vitro and in vivo” (Eur J Med Chem, 2019)
pIC50: −log10 of the molar value. Activity calls are given as the source filed them. No cut-off for these calls is given here.

How the values were obtained:
HCT-116 [1] = assay: Antitumour activity against human HCT116 cells xenografted in BALB/c nude mouse assessed as delay in tumour growth at 2.5 to 5 mg/kg, ip administered daily for 18 days started from 2 days after tumor cell inoculation by digital caliper method; type: functional, organism-based
WM 266-4 = assay: cells; type: functional, cell-based; conditions: Homo sapiens, WM 266-4, 48 h
Description: Antiproliferative activity against human WM266.4 cells assessed as inhibition of cell viability after 48 hrs by MTS assay

[2] = Toxicity in BALB/c nude mouse xenografted with human HCT116 cells assessed as effect on body weight at 2.5 to 5 mg/kg, ip administered daily for 18 days; type: organism-based; conditions: in vivo, 432 h
HCT-116 [3] = assay: cells; type: functional, cell-based; conditions: Homo sapiens, HCT-116, 48 h
Description: Antiproliferative activity against human HCT116 cells assessed as inhibition of cell viability after 48 hrs by MTS assay

HCT-116 [4] = assay: Antitumour activity against human HCT116 cells xenografted in BALB/c nude mouse assessed as tumour shrunken at 2.5 to 5 mg/kg, ip administered daily for 18 days started from 2 days after tumor cell inoculation by digital caliper method; type: functional, organism-based
HCT-116 [5] = assay: Potency index, ratio of dihydroartemisinin IC50 to compound IC50 for antiproliferative activity against human HCT116 cells by MTS assay; type: functional
HCT-116 [6] = conditions: Homo sapiens, at 10 mg/kg
Description: Antitumour activity against human HCT116 cells xenografted in BALB/c nude mouse assessed as reduction in tumour growth at 10 mg/kg, ip administered daily for 18 days started from 2 days after tumor cell inoculation by digital caliper method

SMILES	pIC50 (WM 266-4)	pIC50 (HCT-116 [3])	further results
C[C@H]1[C@H](OC[C@H](NC(=O)c2ccc3ncnc(Nc4ccc(F)c(Cl)c4)c3c2)c2ccccc2)O[C@@H]2O[C@@]3(C)CC[C@H]4[C@H](C)CC[C@@H]1[C@@]24OO3	5.18	6.96	inhibition (HCT-116 [1]): Active; Activity [2]: Non-Toxic; Activity (HCT-116 [4]): Active
C[C@H]1[C@H](OC[C@H](N)c2ccccc2)O[C@@H]2O[C@@]3(C)CC[C@H]4[C@H](C)CC[C@@H]1[C@@]24OO3	4.82	4.79	–
C[C@H]1[C@H](OC(=O)CCCC(=O)OCc2ccc3ncnc(Nc4ccc(F)c(Cl)c4)c3c2)O[C@@H]2O[C@@]3(C)CC[C@H]4[C@H](C)CC[C@@H]1[C@@]24OO3	4.94	6.54	–
CC(=O)O[C@H]1C(=O)[C@@]2(C)[C@H]([C@H](OC(=O)c3ccccc3)[C@]3(O)C[C@H](OC(=O)[C@H](O)[C@@H](NC(=O)c4ccccc4)c4ccccc4)C(C)=C1C3(C)C)[C@]1(OC(C)=O)CO[C@@H]1C[C@@H]2O [PACLITAXEL]	9.49	–	–
C[C@H]1[C@H](OC(=O)CCC(=O)O)O[C@@H]2O[C@@]3(C)CC[C@H]4[C@H](C)CC[C@@H]1[C@@]24OO3 [ARTESUNATE]	5.07	6.05	–
C[C@H]1[C@@H](OCCCCOCc2ccc3ncnc(Nc4ccc(F)c(Cl)c4)c3c2)O[C@@H]2O[C@@]3(C)CC[C@H]4[C@H](C)CC[C@@H]1[C@@]24OO3	5.42	6.44	–
CC(=O)N(c1ccc(F)c(Cl)c1)c1ncnc2ccc(COC(=O)CCCC(=O)N[C@@H]3O[C@@H]4O[C@@]5(C)CC[C@H]6[C@H](C)CC[C@@H]([C@H]3C)[C@@]46OO5)cc12	5.29	5.27	–
CC(=O)N(c1ccc(F)c(Cl)c1)c1ncnc2ccc(COC(=O)CCCC(=O)O[C@@H]3O[C@@H]4O[C@@]5(C)CC[C@H]6[C@H](C)CC[C@@H]([C@H]3C)[C@@]46OO5)cc12	4.82	6.11	–
C[C@H]1[C@H](OC(=O)CCC(=O)OCc2ccc3ncnc(Nc4ccc(F)c(Cl)c4)c3c2)O[C@@H]2O[C@@]3(C)CC[C@H]4[C@H](C)CC[C@@H]1[C@@]24OO3	4.99	6.74	–
CC(=O)N(c1ccc(F)c(Cl)c1)c1ncnc2ccc(COC(=O)CCC(=O)N[C@@H]3O[C@@H]4O[C@@]5(C)CC[C@H]6[C@H](C)CC[C@@H]([C@H]3C)[C@@]46OO5)cc12	4.81	4.89	–
C[C@H]1[C@H](OCc2ccc3ncnc(Nc4ccc(F)c(Cl)c4)c3c2)O[C@@H]2O[C@@]3(C)CC[C@H]4[C@H](C)CC[C@@H]1[C@@]24OO3	5.34	6.38	–
CC(=O)N(c1ccc(F)c(Cl)c1)c1ncnc2ccc(COC(=O)CCCCC(=O)O[C@@H]3O[C@@H]4O[C@@]5(C)CC[C@H]6[C@H](C)CC[C@@H]([C@H]3C)[C@@]46OO5)cc12	4.73	6.18	–
C[C@H]1[C@H](NC(=O)CCCC(=O)OCc2ccc3ncnc(Nc4ccc(F)c(Cl)c4)c3c2)O[C@@H]2O[C@@]3(C)CC[C@H]4[C@H](C)CC[C@@H]1[C@@]24OO3	4.82	5.25	–
C[C@H]1[C@@H](OCCCCCOc2ccc3ncnc(Nc4ccc(F)c(Cl)c4)c3c2)O[C@@H]2O[C@@]3(C)CC[C@H]4[C@H](C)CC[C@@H]1[C@@]24OO3	5.54	6.62	Ratio IC50 (HCT-116 [5]): 10
CC(=O)N(c1ccc(F)c(Cl)c1)c1ncnc2ccc(COC(=O)CCC(=O)O[C@@H]3O[C@@H]4O[C@@]5(C)CC[C@H]6[C@H](C)CC[C@@H]([C@H]3C)[C@@]46OO5)cc12	5.03	6.55	–
O=C(O)c1ccc2ncnc(Nc3ccc(F)c(Cl)c3)c2c1	< 4.40	< 4.40	–
C[C@H]1[C@@H](OCCCOCc2ccc3ncnc(Nc4ccc(F)c(Cl)c4)c3c2)O[C@@H]2O[C@@]3(C)CC[C@H]4[C@H](C)CC[C@@H]1[C@@]24OO3	5.29	5.68	–
C[C@@H]1CC[C@H]2[C@@H](C)C(O[C@@H](C(=O)OCc3ccc4ncnc(Nc5ccc(F)c(Cl)c5)c4c3)c3ccccc3)O[C@@H]3O[C@@]4(C)CC[C@@H]1[C@]32OO4 (stereo partly drawn)	–	6.17	–
C[C@H]1[C@@H](OCc2ccc3ncnc(Nc4ccc(F)c(Cl)c4)c3c2)O[C@@H]2O[C@@]3(C)CC[C@H]4[C@H](C)CC[C@@H]1[C@@]24OO3	4.97	6.54	–
C[C@H]1[C@H](OCCCCCOc2ccc3ncnc(Nc4ccc(F)c(Cl)c4)c3c2)O[C@@H]2O[C@@]3(C)CC[C@H]4[C@H](C)CC[C@@H]1[C@@]24OO3	5.24	6.46	–
CC(=O)N(c1ccc(F)c(Cl)c1)c1ncnc2ccc(COC(=O)CCCCC(=O)N[C@@H]3O[C@@H]4O[C@@]5(C)CC[C@H]6[C@H](C)CC[C@@H]([C@H]3C)[C@@]46OO5)cc12	4.56	4.93	–
C[C@H]1[C@H](OCCCOCc2ccc3ncnc(Nc4ccc(F)c(Cl)c4)c3c2)O[C@@H]2O[C@@]3(C)CC[C@H]4[C@H](C)CC[C@@H]1[C@@]24OO3	4.80	5.18	–
C[C@H]1[C@H](NC(=O)CCC(=O)OCc2ccc3ncnc(Nc4ccc(F)c(Cl)c4)c3c2)O[C@@H]2O[C@@]3(C)CC[C@H]4[C@H](C)CC[C@@H]1[C@@]24OO3	5.01	5.56	–
C[C@H]1[C@H](O)O[C@@H]2O[C@@]3(C)CC[C@H]4[C@H](C)CC[C@@H]1[C@@]24OO3	< 4.40	5.55	inhibition (HCT-116 [6]): Active
C[C@H]1[C@H](OC(=O)CCCCC(=O)OCc2ccc3ncnc(Nc4ccc(F)c(Cl)c4)c3c2)O[C@@H]2O[C@@]3(C)CC[C@H]4[C@H](C)CC[C@@H]1[C@@]24OO3	5.45	6.51	–
C[C@@H]1CC[C@H]2[C@@H](C)C(O[C@H](C(=O)OCc3ccc4ncnc(Nc5ccc(F)c(Cl)c5)c4c3)c3ccccc3)O[C@@H]3O[C@@]4(C)CC[C@@H]1[C@]32OO4 (stereo partly drawn)	–	6.05	–
C[C@H]1[C@H](NC(=O)CCCCC(=O)OCc2ccc3ncnc(Nc4ccc(F)c(Cl)c4)c3c2)O[C@@H]2O[C@@]3(C)CC[C@H]4[C@H](C)CC[C@@H]1[C@@]24OO3	4.60	5.25	–
C[C@H]1[C@H](OCCCCOCc2ccc3ncnc(Nc4ccc(F)c(Cl)c4)c3c2)O[C@@H]2O[C@@]3(C)CC[C@H]4[C@H](C)CC[C@@H]1[C@@]24OO3	4.90	5.62	–
